Assays:
[1] = tested on: DU145 (human prostate cancer cells); experiment: Anti-proliferative activity on DU-145 cell line (WST1 colorimetric test); type: cell-based; settings: DU-145, 96 h, 96 hours treatment, read-out: IC50 on the proliferation of the DU-145 cell line
Method: (§1) By way of an example, the effect of treating two human cell lines Mia-Paca2 and DU145 with the compounds of the examples described hereinbefore will be studied. The cell lines DU145 (human prostate cancer cells) and Mia-PaCa2 (human pancreas cancer cells) were obtained from the American Tissue Culture Collection (Rockville, Md., USA). A 96-well plate was inoculated on day 0 with cells placed in 80 μl of Dulbecco's modified Eagle's medium (Gibco-Brl, Cergy-Pontoise, France) with 10% heat-inactivated foetal calf serum (Gibco-Brl, Cergy-Pontoise, France), 50000 units/1 of penicillin and 50 mg/l of streptomycin (Gibco-Brl, Cergy-Pontoise, France), and 2 mM of glutamine (Gibco-Brl, Cergy-Pontoise, France). The cells were treated on day 1 with increasing concentrations of each test compound up to 10 μM for 96 hours. At the end of this period, cell proliferation is quantified by means of a colorimetric test based on cleavage of the tetrazolium salt WST1 by the mitochondrial dehydrogenases in the viable cells, resulting in formation of formazan (Boehringer Mannheim, Meylan, France). These tests are performed in duplicate with 8 determinations per concentration tested. For each compound to be tested, the values within the linear part of the sigmoid curve were subjected to linear regression analysis and used to estimate the IC50 inhibitory concentration. The products are solubilised in dimethylsulfoxide (DMSO) at a concentration of 10^−2 M and used in culture with a final DMSO concentration of 0.1%.

[2] = biological target: T1, purified recombinant Cdc25-C enzyme (MBP-Cdc25C protein) (Homo sapiens, UniProt P30307); experiment: Phosphatase activity of the purified recombinant Cdc25C enzyme (OMFP dephosphorylation, fluorescence); type: biochemical; settings: OMFP 500 μM, 4 hours at 30° C.
T1 construct: made in house
T1 sequence (P30307 1-473): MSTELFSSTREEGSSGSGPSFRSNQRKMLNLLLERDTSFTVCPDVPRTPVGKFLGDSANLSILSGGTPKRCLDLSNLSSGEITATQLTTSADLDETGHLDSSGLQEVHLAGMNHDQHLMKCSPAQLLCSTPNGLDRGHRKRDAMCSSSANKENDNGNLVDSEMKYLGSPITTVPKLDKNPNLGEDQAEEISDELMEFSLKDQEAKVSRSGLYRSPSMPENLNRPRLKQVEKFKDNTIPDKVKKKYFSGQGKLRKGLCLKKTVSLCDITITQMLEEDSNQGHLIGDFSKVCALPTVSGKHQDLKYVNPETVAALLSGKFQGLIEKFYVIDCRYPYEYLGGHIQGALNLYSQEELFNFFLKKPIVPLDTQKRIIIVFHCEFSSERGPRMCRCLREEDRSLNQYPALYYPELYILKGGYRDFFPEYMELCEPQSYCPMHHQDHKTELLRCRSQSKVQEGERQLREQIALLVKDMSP
Method: The phosphatase activity of the MBP-Cdc25C protein is evaluated through its dephosphorylation of 3-O-methylfluorescein-phosphate (OMFP) to form 3-O-methylfluorescein (OMF), determining the fluorescence of the reaction product at 475 nm. This assay can be used to identify inhibitors of the recombinant Cdc25 enzyme. The preparation of the MBP-Cdc25C fusion protein is described in patent application PCT WO 01/44467.
The reaction is performed in 384-well plates in a final volume of 50 μl. The MBP-Cdc25C protein (prepared as described hereinabove) is stored in the following elution buffer: 20 mM Tris-HCl pH 7.4; 250 mM NaCl; 1 mM EDTA; 1 mM dithiothreitol (DTT); 10 mM maltose. It is diluted to a concentration of 60 μM in the following reaction buffer: 50 mM Tris-HCl pH 8.2; 50 mM NaCl; 1 mM DTT; 20% glycerol. The background noise is determined using with the buffer without addition of the enzyme. The products are tested at decreasing concentrations from 40 μM. The reaction is initiated by the addition of a solution OMFP to a final concentration of 500 μM (prepared immediately before use from a 12.5 mM stock solution in 100% DMSO (Sigma #M2629)). After 4 hours at 30° C. in a disposable 384-well plate, the fluorescence measured at OD 475 nm is read on a Victor^2 plate reader (EGG-Wallac). The concentration that produces 50% inhibition of the enzyme reaction is calculated from three independent experiments. Only the values that fall within the linear part of the sigmoid curve are used for the linear regression analysis.

[3] = tested on: Mia-PaCa2 (human pancreas cancer cells); experiment: Anti-proliferative activity on Mia-Paca2 cell line (WST1 colorimetric test); type: cell-based; settings: MIA PaCa-2, 96 h, 96 hours treatment, read-out: IC50 on proliferation of the Mia-Paca2 cell line
Method: as §1

SMILES	IC50 [1]	IC50 [2]	melting point	IC50 [3]
CN(CCNC(=S)Nc1ccc(C(F)(F)F)cc1)CCNc1cc(N2CCCC2)nc(N2CCCC2)n1 [Example 25, N-{2-[{2-[(2,6-dipyrrolidin-1-ylpyrimidin-4-yl)amino]ethyl}(methyl)amino]ethyl}-N′-[4-(trifluoromethyl)phenyl]thiourea]	≤ 5 µM	–	87 to 89 °C	–
CCNc1cc(NCCN(C)CCNC(=S)Nc2ccc(Cl)cc2)nc(NCC)n1 [Example 79, N-{2-[(2-{[2,6-bis(ethylamino)pyrimidin-4-yl]amino}ethyl)(methyl)amino]ethyl}-N′-(4-chlorophenyl)thiourea]	–	–	142 to 144 °C	≤ 5 µM
CN(CCNC(=S)Nc1cccc2ccccc12)CCNc1cc(N2CCCC2)nc(N2CCCC2)n1 [Example 37, N-{2-[{2-[(2,6-dipyrrolidin-1-ylpyrimidin-4-yl)amino]ethyl}(methyl)amino]ethyl}-N′-1-naphthylthiourea]	≤ 5 µM	≤ 5 µM	87 to 89 °C	–
CN(CCNC(=O)C1CCN(c2nccc(C(F)(F)F)n2)CC1)CCNc1cc(N2CCCC2)nc(N2CCCC2)n1 [Example 86, N-{2-[{2-[(2,6-dipyrrolidin-1-ylpyrimidin-4-yl)amino]ethyl}(methyl)amino]ethyl}-1-[4-(trifluoromethyl)pyrimidin-2-yl]piperidine-4-carboxamide]	–	≤ 5 µM	171 to 173 °C	≤ 5 µM
CN(CCNC(=O)Nc1cccs1)CCNc1cc(N2CCCC2)nc(N2CCCC2)n1 [Example 10, N-{2-[{2-[(2,6-dipyrrolidin-1-ylpyrimidin-4-yl)amino]ethyl}(methyl)amino]ethyl}-N′-2-thienylurea]	≤ 5 µM	≤ 1 µM	133 to 135 °C	–
CN(CCNC(=S)Nc1ccc(Oc2ccccc2)nc1)CCNc1cc(N2CCCC2)nc(N2CCCC2)n1 [Example 30, N-{2-[{2-[(2,6-dipyrrolidin-1-ylpyrimidin-4-yl)amino]ethyl}(methyl)amino]ethyl}-N′-(6-phenoxypyridin-3-yl)thiourea]	≤ 5 µM	≤ 5 µM	104 to 106 °C	–
CN(CCNC(=O)c1cccc2c1-c1ccccc1C2=O)CCNc1cc(N2CCCC2)nc(N2CCCC2)n1 [Example 85, N-{2-[{2-[(2,6-dipyrrolidin-1-ylpyrimidin-4-yl)amino]ethyl}(methyl)amino]ethyl}-9-oxo-9H-fluorene-4-carboxamide]	–	≤ 5 µM	139 to 140 °C	≤ 5 µM
CN(CCNC(=S)Nc1ccc(Oc2ccccc2)cc1)CCNc1cc(N2CCCC2)nc(N2CCCC2)n1 [Example 36, N-{2-[{2-[(2,6-dipyrrolidin-1-ylpyrimidin-4-yl)amino]ethyl}(methyl)amino]ethyl}-N′-(4-phenoxyphenyl)thiourea]	≤ 5 µM	≤ 5 µM	79 to 81 °C	–
CN(CCNC(=S)Nc1ccc(-c2cnco2)cc1)CCNc1cc(N2CCCC2)nc(N2CCCC2)n1 [Example 33, N-{2-[{2-[(2,6-dipyrrolidin-1-ylpyrimidin-4-yl)amino]ethyl}(methyl)amino]ethyl}-N′-[4-(1,3-oxazol-5-yl)phenyl]thiourea]	≤ 5 µM	≤ 5 µM	104 to 106 °C	–
CN(CCNC(=S)Nc1cccnc1)CCNc1cc(N2CCCC2)nc(N2CCCC2)n1 [Example 26, N-{2-[{2-[(2,6-dipyrrolidin-1-ylpyrimidin-4-yl)amino]ethyl}(methyl)amino]ethyl}-N′-pyridin-3-ylthiourea]	–	≤ 1 µM	107 to 109 °C	≤ 5 µM
CC(Oc1ccccc1)C(=O)NCCN(C)CCNc1cc(N2CCCC2)nc(N2CCCC2)n1 (stereo not drawn) [Example 84, N-{2-[{2-[(2,6-dipyrrolidin-1-ylpyrimidin-4-yl)amino]ethyl}(methyl)amino]ethyl}-2-phenoxypropanamide]	–	≤ 5 µM	110 to 112 °C	≤ 5 µM
CN(CCNc1cc(N2CCCC2)nc(N2CCCC2)n1)CCNS(=O)(=O)c1ccc([N+](=O)[O-])cc1 [Example 87, N-{2-[{2-[(2,6-dipyrrolidin-1-ylpyrimidin-4-yl)amino]ethyl}(methyl)amino]ethyl}-4-nitrobenzenesulfonamide]	–	≤ 1 µM	144 to 145 °C	≤ 5 µM
CN(C)CCN(C)c1cc(NCCN(C)CCNC(=S)Nc2ccc(Cl)cc2)nc(N(C)CCN(C)C)n1 [Example 64, N-{2-[[2-({2,6-bis[[2-(dimethylamino)ethyl](methyl)amino]pyrimidin-4-yl}amino)ethyl](methyl)amino]ethyl}-N′-(4-chlorophenyl)thiourea]	–	≤ 5 µM	–	≤ 5 µM

Other lines, results leading:

IC50 [1]	IC50 [2]	melting point	IC50 [3]	SMILES
≤ 5 µM	≤ 1 µM	76 to 78 °C	–	CN(CCNC(=S)Nc1ccc(Cl)cc1)CCNc1cc(N2CCCCC2)nc(N2CCCCC2)n1 [Example 69, N-(4-chlorophenyl)-N′-{2-[{2-[(2,6-dipiperidin-1-ylpyrimidin-4-yl)amino]ethyl}(methyl)amino]ethyl}thiourea]
≤ 5 µM	≤ 5 µM	118 to 120 °C	–	CN(CCNC(=S)Nc1ccc(OC(F)(F)F)cc1)CCNc1cc(N2CCCC2)nc(N2CCCC2)n1 [Example 23, N-{2-[{2-[(2,6-dipyrrolidin-1-ylpyrimidin-4-yl)amino]ethyl}(methyl)amino]ethyl}-N′-[4-(trifluoromethoxy)phenyl]thiourea]
≤ 5 µM	≤ 5 µM	127 to 129 °C	–	COc1ccc(NC(=S)NCCN(C)CCNc2cc(N3CCCC3)nc(N3CCCC3)n2)cc1 [Example 35, N-{2-[{2-[(2,6-dipyrrolidin-1-ylpyrimidin-4-yl)amino]ethyl}(methyl)amino]ethyl}-N′-(4-methoxyphenyl)thiourea]
≤ 5 µM	≤ 1 µM	192 to 194 °C	–	CN(CCNC(=S)Nc1ccc(C(C)(C)C)cc1)CCNc1cc(N2CCCC2)nc(N2CCCC2)n1 [Example 44, N-(4-tert-butylphenyl)-N′-{2-[{2-[(2,6-dipyrrolidin-1-ylpyrimidin-4-yl)amino]ethyl}(methyl)amino]ethyl}thiourea]
≤ 5 µM	≤ 5 µM	115 to 117 °C	–	CN(CCNC(=S)Nc1ccc(F)cc1)CCNc1cc(N2CCCC2)nc(N2CCCC2)n1 [Example 24, N-{2-[{2-[(2,6-dipyrrolidin-1-ylpyrimidin-4-yl)amino]ethyl}(methyl)amino]ethyl}-N′-(4-fluorophenyl)thiourea]
≤ 5 µM	≤ 1 µM	67 to 69 °C	–	CSc1ccc(NC(=S)NCCN(C)CCNc2cc(N3CCCC3)nc(N3CCCC3)n2)cc1 [Example 51, N-{2-[{2-[(2,6-dipyrrolidin-1-ylpyrimidin-4-yl)amino]ethyl}(methyl)amino]ethyl}-N′-[4-(methylthio)phenyl]thiourea]

— US20100137275A1 (IPSEN PHARMA S.A.S., priority 2007, published 2010)
